Data published in ChEMBL document CHEMBL1201862, “PubChem BioAssay data set” (2004).
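Grown in 96-well plates, cells were treated for 48 hours with each compound at five concentrations. Insufficient inhibition: endpoint recorded as highest concentration tested. The concentration for 50% growth inhibition is given as GI50.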 Active and inactive are the calls of the source. No stated cut-off is given here; in the data, active = GI50 up to about 1.1 µM and inactive = higher.

How the values were obtained:
Experiment in all cases: DTP human tumour cell line panel, 48 h
SN12C = test system: SN12C
MCF7 = test system: MCF7
M14 = test system: M14
NCI/ADR-RES = test system: NCI/ADR-RES
SF-295 = test system: SF-295
ACHN = test system: ACHN
UACC-62 = test system: UACC-62
SW-620 = test system: SW-620
TK-10 = test system: TK-10
OVCAR-3 = test system: OVCAR-3
NCI-H522 = test system: NCI-H522
PC-3 = test system: PC-3
T47D = test system: T47D
UO-31 = test system: UO-31
SNB-19 = test system: SNB-19
MDA-MB-231 = test system: MDA-MB-231
UACC-257 = test system: UACC-257
SK-MEL-5 = test system: SK-MEL-5
SK-MEL-28 = test system: SK-MEL-28
OVCAR-8 = test system: OVCAR-8

Measured: GI50

CC(=O)Nc1c(C)cc(OCC(=O)O)cc1C
inactive: SN12C > 100 µM | MCF7 > 100 µM | M14 > 100 µM | NCI/ADR-RES > 100 µM | SF-295 > 100 µM | ACHN > 100 µM | UACC-62 > 100 µM | SW-620 > 100 µM | TK-10 > 100 µM | OVCAR-3 > 100 µM | NCI-H522 > 100 µM | PC-3 > 100 µM | T47D > 100 µM | UO-31 > 100 µM | SNB-19 > 100 µM | MDA-MB-231 > 100 µM | UACC-257 > 100 µM | SK-MEL-5 > 100 µM | SK-MEL-28 > 100 µM | OVCAR-8 > 100 µM

O=C1C=CC(=O)[C@H]2C3C=CC(C4C3C3(Cl)C(Cl)=C(Cl)[C@]4(Cl)C3(Cl)Cl)[C@@H]12 (stereo not given in full)
inactive: SN12C 5.58 µM | MCF7 3.91 µM | M14 4.3 µM | NCI/ADR-RES 5.83 µM | SF-295 12.5 µM | ACHN 8.55 µM | UACC-62 8.83 µM | SW-620 9.57 µM | TK-10 16.8 µM | OVCAR-3 2.95 µM | NCI-H522 11 µM | PC-3 4.94 µM | T47D 5.48 µM | UO-31 10.3 µM | SNB-19 5.62 µM | MDA-MB-231 4.45 µM | UACC-257 2.32 µM | SK-MEL-5 3.55 µM | SK-MEL-28 4.91 µM | OVCAR-8 8.47 µM
